This note sets out measurements from US11596611B2, “Hepatitis B antiviral agents” (ENANTA PHARMACEUTICALS, INC., priority 2017, dated 2023).

Read-outs that look alike come from different tables or passages of the source.

The subject of this assay is HBV. As to the kind of experiment: HepAD38 antiviral assay: reduction of viral product accumulation (virion DNA by qPCR, HBsAg or HBeAg by ELISA). The following applies: Hepatitis B virus. It is filed as cell-based, hepatitis B virus. Here is the method:
Methods: HepAD38 cells are maintained as previously reported (Ladner et al, Antimicrob. Agents Chemother. 1997, […], 1715). Briefly, cells are passaged upon attaining confluency in DMEM/F12 media in the presence of 10% FBS, Penn/Strep, 250 μg/mL G418, and 1 ug/ml tetracycline. Novel compounds are screened by first washing cells three times with PBS to remove tetracycline, and plating in 96 well plates at 35,000 cells/well. Compounds dissolved in DMSO are then diluted 1:200 into wells containing cells. Five days after compound addition, material is harvested for analysis. For an extended 8 days analysis, cells are plated and treated as described above, but media and compound are refreshed on d2 and d5 post initial treatment.
On harvest day, virion DNA is obtained by lysing with Sidestep Lysis and Stabilization Buffer and then quantified via quantitative real time PCR. Commercially available ELISA kits are used to quantitate the viral proteins HBsAg (Alpco) or HbeAg (US Biological) by following the manufacturer's recommended protocol after diluting samples to match the linear range of their respective assays.

Where [1] appears, read: 120 h, HepAD38 cells, five days after compound addition, 50% reduction of viral product vs no drug controls, read-out: HepAD38 EC50.

Consider `C[C@]1(O)C2CCC1C[C@@H](S(=O)(=O)c1cc(C(=O)Nc3ccc(F)c(F)c3)c(-c3ccccn3)cc1Cl)C2` [Example 133], for which the EC50 (commonly the concentration at which the effect is half-maximal) under setting [1] is above 0.2 µM.

Consider `CC1(C)OC[C@H](CN2C3CCC2CC(S(=O)(=O)c2cc(C(=O)Nc4cc(F)c(F)c(F)c4)ccc2Cl)C3)O1` (single isomer, unassigned) [Example 144], for which the EC50 (HePAD38, 120 h, read-out: HepAD38 EC50 (μM)) lay within 0.1 to 0.2 µM.

On to `CC(C)([C@H]1CC[C@H](O)CC1)S(=O)(=O)c1cc(C(=O)Nc2ccc(F)c(F)c2)ccc1Cl` [Example 236], for which the EC50 under setting [1] is above 0.2 µM.

With `O=C(Nc1cc(F)c(F)c(F)c1)c1ccc(Cl)c(S(=O)(=O)[C@H]2CC3CCC(C2)[C@]3(O)CNC(=O)[C@@H]2CCCO2)c1` (single isomer, unassigned) [Example 14], the EC50 under setting [1] is below 0.104 µM.

On to `C[C@]1(O)C2CCC1C[C@@H](S(=O)(=O)c1cc(C(=O)Nc3ccc(F)c(Br)c3)ccc1Cl)C2` [Example 30], for which the EC50 under setting [1] was below 0.104 µM.

Consider `O=C1NCC([C@H](O)[C@@H](O)[C@]2(O)C3CCC2C[C@@H](S(=O)(=O)c2cc(C(=O)Nc4ccc(F)c(F)c4)ccc2Cl)C3)O1` (stereo partly shown) [Example 348], for which, under setting [1], the EC50 was below 0.104 µM.

Consider `CC(C)C(O)[C@]1(O)C2CCC1C[C@@H](S(=O)(=O)c1cc(C(=O)Nc3ccc(F)c(F)c3)ccc1Cl)C2` (stereo partly shown) [Example 281], for which the EC50 under setting [1] is above 0.2 µM.

`Cc1ccc(C(=O)Nc2ccc(F)c(F)c2)cc1S(=O)(=O)[C@H]1CC2CCC(C1)[C@@]2(C)O` [Example 47]: the EC50 under setting [1] fell in the range of 0.1 to 0.2 µM.

Consider `Cc1cc(Cl)c(S(=O)(=O)[C@H]2CC3CCC(C2)[C@@]3(C)O)cc1C(=O)Nc1ccc(F)c(F)c1` [Example 69], for which the EC50 under setting [1] was below 0.104 µM.

On to `COC(=O)CCNC(=O)CC1(O)CC(S(=O)(=O)c2cc(C(=O)Nc3ccc(F)c(F)c3)ccc2Cl)C1` (stereo not shown) [Example 248], for which, under setting [1], the EC50 is above 0.2 µM.

Turning to `O=C(C[C@]1(O)C2CCC1C[C@@H](S(=O)(=O)c1cc(C(=O)Nc3cc(F)c(F)c(F)c3)ccc1Cl)C2)NCC(O)CO` (stereo partly shown) [Example 65], under setting [1], the EC50 is below 0.104 µM.

For the molecule `NS(=O)(=O)OC[C@]1(O)CC2CC[C@@H](C1)[C@H]2S(=O)(=O)c1cc(C(=O)Nc2cc(F)c(F)c(F)c2)ccc1Cl` [Example 3], the EC50 under setting [1] is below 0.104 µM.

Consider `C[C@]1(O)C2CCC1C[C@@H](S(=O)(=O)c1cc(C(=O)Nc3ccncn3)ccc1Cl)C2` [Example 221], for which, under setting [1], the concentration for a half-maximal effect (EC50) was above 0.2 µM.

For the molecule `C[C@]1(O)C2CCC1C[C@@H](S(=O)(=O)c1cc(C(=O)Nc3ccnnc3)ccc1Cl)C2` [Example 212], under setting [1], the EC50 is above 0.2 µM.

Turning to `COCCOC[C@]1(O)C2CCC1C[C@@H](S(=O)(=O)c1cc(C(=O)Nc3cc(F)c(F)c(F)c3)ccc1Cl)C2` [Example 98], the EC50 under setting [1] is below 0.104 µM.

Regarding `CC(C)c1cc(NC(=O)c2ccc(Cl)c(S(=O)(=O)[C@H]3CC4CCC(C3)[C@@]4(C)O)c2)ccc1F` [Example 43], the EC50 under setting [1] is above 0.2 µM.

`C[C@]1(O)C2CCC1C[C@@H](S(=O)(=O)c1cc(C(=O)Nc3ccc(F)c(O)c3)ccc1Cl)C2` [Example 134]: the EC50 under setting [1] was above 0.2 µM.

With `C[C@@H](CO)NC(=O)[C@H]1C[C@@H](S(=O)(=O)c2cc(C(=O)Nc3ccc(F)c(F)c3)ccc2Cl)C1` [Example 256b], under setting [1], the EC50 is above 0.2 µM.

`O=C(O)CNC(=O)C[C@]1(O)C2CCC1C[C@@H](S(=O)(=O)c1cc(C(=O)Nc3cc(F)c(F)c(F)c3)ccc1Cl)C2` [Example 120]: the EC50 under setting [1] was above 0.2 µM.

With `Cn1cc(C(O)C(O)[C@]2(O)C3CCC2C[C@@H](S(=O)(=O)c2cc(C(=O)Nc4ccc(F)c(F)c4)ccc2Cl)C3)cn1` (stereo partly shown) [Example 322], the EC50 under setting [1] was below 0.104 µM.

For the molecule `O=C(Nc1ccc(F)c(F)c1)c1ccc(Cl)c(S(=O)(=O)CC2CC(O)(CO)C2)c1` (stereo not shown) [Example 200], the EC50 under setting [1] was above 0.2 µM.

Regarding `O=C(Nc1ccc(F)c(F)c1)c1ccc(Cl)c(S(=O)(=O)[C@H]2CC3CCC(C2)[C@]3(O)C(O)c2ncccc2F)c1` (stereo partly shown) [Example 297], the EC50 under setting [1] is below 0.104 µM.

With `CC1(C)O[C@H]2[C@H](CO[C@@H]2C(=O)NC[C@@]2(O)C3CC[C@H]2C[C@H](S(=O)(=O)c2cc(C(=O)Nc4cc(F)c(F)c(F)c4)ccc2Cl)C3)O1` [Example 28], the EC50 under setting [1] is below 0.104 µM.

For the molecule `C[C@@H](CO)NC(=O)CC1(O)CC(S(=O)(=O)c2cc(C(=O)Nc3ccc(F)c(F)c3)ccc2Cl)C1` (stereo partly shown) [Example 247], the EC50 under setting [1] is above 0.2 µM.

With `C[C@H](O)COCC1(O)CC(CS(=O)(=O)c2cc(C(=O)Nc3ccc(F)c(F)c3)ccc2Cl)C1` (stereo partly shown) [Example 208], the EC50 under setting [1] was above 0.2 µM.

`O=C(Nc1cc(F)c(F)c(F)c1)c1ccc(Cl)c(S(=O)(=O)[C@H]2CC3CCC(C2)[C@]3(O)COC[C@H](O)C(O)CO)c1` (stereo partly shown) [Example 60]: the EC50 under setting [1] was 0.1 to 0.2 µM.

`O=C(Nc1ccc(F)c(F)c1)c1ccc(Cl)c(S(=O)(=O)[C@H]2CC3CCC(C2)[C@]3(O)C(O)C(O)CN2CCCS2(=O)=O)c1` (stereo partly shown) [Example 320]: the EC50 under setting [1] was below 0.104 µM.

For the molecule `COC[C@H](C)NC(=O)C[C@]1(O)C2CCC1C[C@@H](S(=O)(=O)c1cc(C(=O)Nc3cc(F)c(F)c(F)c3)ccc1Cl)C2` [Example 118], the EC50 under setting [1] is below 0.104 µM.

As for `O=C(Nc1ccc(F)c(F)c1)c1ccc(Cl)c(S(=O)(=O)[C@H]2CC3CC[C@@H](C2)[C@@]3(O)C(O)Cn2cccn2)c1` (stereo partly shown) [Example 310], the EC50 under setting [1] was above 0.2 µM.

`O=C(Nc1cc(F)c(F)c(F)c1)c1ccc(Cl)c(S(=O)(=O)[C@H]2CC3CCC(C2)[C@]3(O)CNC(=O)C2CC=CCC2)c1` (stereo partly shown) [Example 18]: the EC50 under setting [1] is below 0.104 µM.

Take `C[C@]1(O)C2CCC1C[C@@H](S(=O)(=O)c1cc(C(=O)Nc3ccc(Cl)c(F)c3)ccc1Cl)C2` [Example 46]: under setting [1], the EC50 was above 0.2 µM.

As to `O=C(Nc1cc(F)c(F)c(F)c1)c1ccc(Cl)c(S(=O)(=O)[C@H]2CC3CCC(C2)[C@]3(O)CNC(=O)C2CCC(O)C(O)C2)c1` (single isomer, unassigned) [Example 19], the EC50 under setting [1] was above 0.2 µM.

Consider `O=C(Nc1ccc(F)c(F)c1)c1ccc(Cl)c(S(=O)(=O)C2CO[C@@H]3C(O)CO[C@H]23)c1` (stereo partly shown) [Example 201], for which the EC50 under setting [1] was above 0.2 µM.

Take `O=C1N[C@H](C(=O)NC[C@]2(O)C3CCC2C[C@@H](S(=O)(=O)c2cc(C(=O)Nc4cc(F)c(F)c(F)c4)ccc2Cl)C3)CO1` [Example 85]: the EC50 under setting [1] was above 0.2 µM.

Take `O=C(Nc1ccc(F)c(F)c1)c1ccc(Cl)c(S(=O)(=O)[C@@H]2CC3C[C@@H](O)C(C2)[C@@]3(O)CO)c1` (stereo partly shown) [Example 328]: the EC50 under setting [1] was 0.1 to 0.2 µM.

`C[C@H](O)CC(=O)NC[C@]1(O)C2CCC1C[C@@H](S(=O)(=O)c1cc(C(=O)Nc3ccc(F)c(F)c3)ccc1Cl)C2` [Example 169]: the EC50 under setting [1] lay in the range of 0.1 to 0.2 µM.

For `COC[C@@H](C)NC(=O)C[C@]1(O)C2CCC1C[C@@H](S(=O)(=O)c1cc(C(=O)Nc3cc(F)c(F)c(F)c3)ccc1Cl)C2` [Example 115], the EC50 under setting [1] was below 0.104 µM.

Regarding `O=C(Nc1ccc(F)c(F)c1)c1ccc(Cl)c(S(=O)(=O)CC2CCC(O)(CO)CC2)c1` (stereo not shown) [Example 194], the EC50 under setting [1] was 0.1 to 0.2 µM.

Turning to `O=C(Nc1ccc(F)c(F)c1)c1ccc(Cl)c(S(=O)(=O)CC2CCC(F)(F)CC2)c1` [Example 219], under setting [1], the EC50 is above 0.2 µM.

In the case of `O=C(Nc1ccc(F)c(F)c1)c1ccc(Cl)c(S(=O)(=O)[C@H]2C3CC[C@H]2C[C@](O)(c2ncc[nH]2)C3)c1` [Example 6], the EC50 under setting [1] was below 0.104 µM.

Take `Cn1nccc1C(O)[C@]1(O)C2CCC1C[C@@H](S(=O)(=O)c1cc(C(=O)Nc3ccc(F)c(F)c3)ccc1Cl)C2` (stereo partly shown) [Example 288]: under setting [1], the EC50 was below 0.104 µM.

For `CC[C@H](O)[C@@H](O)[C@]1(O)C2CCC1C[C@@H](S(=O)(=O)c1cc(C(=O)Nc3ccc(F)c(F)c3)ccc1Cl)C2` [Example 334], the EC50 under setting [1] is below 0.104 µM.

Consider `C[C@]1(O)C2CCC1C[C@@H](S(=O)(=O)c1cc(C(=O)Nc3ncccn3)ccc1Cl)C2` [Example 217], for which, under setting [1], the EC50 was above 0.2 µM.

Consider `COC(=O)C[C@]1(O)C2CCC1C[C@@H](S(=O)(=O)c1cc(C(=O)Nc3cc(F)c(F)c(F)c3)ccc1Cl)C2` [Example 32], for which, under setting [1], the EC50 is above 0.2 µM.

On to `COC(=O)N1C[C@H](O)C[C@H]1C(=O)NC[C@]1(O)C2CCC1C[C@@H](S(=O)(=O)c1cc(C(=O)Nc3cc(F)c(F)c(F)c3)ccc1Cl)C2` [Example 8], for which the EC50 under setting [1] is above 0.2 µM.

For the molecule `O=C1N[C@@H](C(=O)NC[C@]2(O)C3CCC2C[C@@H](S(=O)(=O)c2cc(C(=O)Nc4cc(F)c(F)c(F)c4)ccc2Cl)C3)CO1` [Example 95], under setting [1], the EC50 was above 0.2 µM.

Take `COC(=O)[C@H]1C[C@@H](S(=O)(=O)c2cc(C(=O)Nc3ccc(F)c(F)c3)ccc2Cl)C1` [Example 250b]: under setting [1], the EC50 is above 0.2 µM.

In the case of `COC(=O)N[C@@H](Cc1ccccc1)C(=O)N1C2CCC1CC(S(=O)(=O)c1cc(C(=O)Nc3cc(F)c(F)c(F)c3)ccc1Cl)C2` (stereo partly shown) [Example 154], the EC50 under setting [1] is above 0.2 µM.

For the molecule `COC[C@]1(O)C2CCC1C[C@H](S(=O)(=O)c1cc(C(=O)Nc3cc(F)c(F)c(F)c3)ccc1Cl)C2` [Example 124], the EC50 under setting [1] was below 0.104 µM.

Take `C[C@H](O)C(=O)O[C@@H](C)C(=O)NC[C@]1(O)C2CCC1C[C@@H](S(=O)(=O)c1cc(C(=O)Nc3cc(F)c(F)c(F)c3)ccc1Cl)C2` (single isomer, unassigned) [Example 106]: the EC50 under setting [1] was below 0.104 µM.

Consider `O=C(Nc1ccc(F)c(F)c1)c1ccc(Cl)c(S(=O)(=O)[C@H]2CC3CCC(C2)[C@]3(O)CO[C@@H]2O[C@H](C(=O)O)[C@@H](O)[C@H](O)[C@H]2O)c1` [Example 330], for which, under setting [1], the EC50 was above 0.2 µM.

Regarding `CC(=O)C[C@]1(O)CC[C@@H](CS(=O)(=O)c2cc(C(=O)Nc3ccc(F)c(F)c3)ccc2Cl)CC1` [Example 223], under setting [1], the half-maximal effective concentration (EC50) was in the range of 0.1 to 0.2 µM.
